Test results taken from the supplement of paper PMC10307832.

How the values were obtained:
Assay in all cases: relative viability (nuclei count vs DMSO), 5 days (fraction); higher = more cells survive
Palbociclib + Alpelisib = compound: CC(=O)c1c(C)c2cnc(Nc3ccc(N4CCNCC4)cn3)nc2n(C2CCCC2)c1=O [Palbociclib] + Cc1nc(NC(=O)N2CCC[C@H]2C(N)=O)sc1-c1ccnc(C(C)(C)C(F)(F)F)c1 [Alpelisib] (partner 2 µM)
How it was run: (§1)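 One day after seeding in 1536-well plates, lung cancer cell lines were dosed by pin tool. Dosing was either single-drug or a fixed anchor-drug dose plus five library-drug doses (not always all listed) in √10 steps. After 5 days, nuclei were stained in one fix-and-stain step and counted on 4× images, and relative viability is the nuclei count of treated wells over that of vehicle wells, given as the median of duplicate plates.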

Palbociclib + Crizotinib = compound: CC(=O)c1c(C)c2cnc(Nc3ccc(N4CCNCC4)cn3)nc2n(C2CCCC2)c1=O [Palbociclib] + C[C@@H](Oc1cc(-c2cnn(C3CCNCC3)c2)cnc1N)c1c(Cl)ccc(F)c1Cl [Crizotinib] (partner 1 µM)
How it was run: as §1

Palbociclib + Dasatinib = compound: CC(=O)c1c(C)c2cnc(Nc3ccc(N4CCNCC4)cn3)nc2n(C2CCCC2)c1=O [Palbociclib] + Cc1nc(Nc2ncc(C(=O)Nc3c(C)cccc3Cl)s2)cc(N2CCN(CCO)CC2)n1 [Dasatinib] (partner 0.075 µM)
How it was run: as §1

Palbociclib + Pictilisib = compound: CC(=O)c1c(C)c2cnc(Nc3ccc(N4CCNCC4)cn3)nc2n(C2CCCC2)c1=O [Palbociclib] + CS(=O)(=O)N1CCN(Cc2cc3nc(-c4cccc5[nH]ncc45)nc(N4CCOCC4)c3s2)CC1 [Pictilisib] (partner 1 µM)
How it was run: as §1

Cell Line | relative viability (Palbociclib + Alpelisib; first compound 0.01 µM) | relative viability (Palbociclib + Alpelisib; first compound 0.03162 µM) | relative viability (Palbociclib + Alpelisib; first compound 0.1 µM) | relative viability (Palbociclib + Alpelisib; first compound 0.3162 µM) | relative viability (Palbociclib + Alpelisib; first compound 1 µM) | relative viability (Palbociclib + Crizotinib; first compound 0.01 µM) | relative viability (Palbociclib + Crizotinib; first compound 0.03162 µM) | relative viability (Palbociclib + Crizotinib; first compound 0.1 µM) | relative viability (Palbociclib + Crizotinib; first compound 0.3162 µM) | relative viability (Palbociclib + Crizotinib; first compound 1 µM) | relative viability (Palbociclib + Dasatinib; first compound 0.01 µM) | relative viability (Palbociclib + Dasatinib; first compound 0.03162 µM) | relative viability (Palbociclib + Dasatinib; first compound 0.1 µM) | relative viability (Palbociclib + Dasatinib; first compound 0.3162 µM) | relative viability (Palbociclib + Dasatinib; first compound 1 µM) | relative viability (Palbociclib + Pictilisib; first compound 0.01 µM) | relative viability (Palbociclib + Pictilisib; first compound 0.03162 µM) | relative viability (Palbociclib + Pictilisib; first compound 0.1 µM) | relative viability (Palbociclib + Pictilisib; first compound 0.3162 µM) | relative viability (Palbociclib + Pictilisib; first compound 1 µM)
COR-L 105 | 0.916 | 0.888 | 0.792 | 0.7 | 0.444 | 0.726 | 0.555 | 0.451 | 0.447 | 0.276 | 0.339 | 0.312 | 0.274 | 0.326 | 0.253 | 0.384 | 0.337 | 0.261 | 0.319 | 0.367
PC-14 | 1.02 | 0.936 | 0.782 | 0.762 | 0.671 | 1.01 | 0.84 | 0.799 | 0.739 | 0.594 | 0.324 | 0.223 | 0.207 | 0.164 | 0.115 | 0.764 | 0.653 | 0.579 | 0.537 | 0.254
NCI-H23 | 0.705 | – | 0.585 | 0.588 | 0.432 | 0.613 | – | 0.436 | 0.458 | 0.428 | 0.835 | – | 0.8 | 0.732 | 0.541 | 0.575 | – | 0.362 | 0.36 | 0.205
LOU-NH91 | 0.753 | 0.609 | 0.545 | 0.576 | 0.55 | 0.745 | 0.676 | 0.584 | 0.592 | 0.505 | 0.66 | 0.425 | 0.429 | 0.434 | 0.41 | 0.547 | 0.479 | 0.484 | 0.465 | 0.446
HCC-827 | 1.04 | 0.927 | 0.913 | 0.819 | 0.652 | 0.904 | 0.889 | 0.844 | 0.787 | 0.781 | 0.296 | 0.234 | 0.311 | 0.264 | 0.288 | 0.859 | 1.02 | 0.986 | 0.951 | 0.746
COR-L23 | 0.671 | 0.535 | 0.516 | 0.37 | 0.311 | 0.707 | 0.551 | 0.427 | 0.32 | 0.287 | 0.575 | 0.431 | 0.241 | 0.334 | 0.2 | 0.772 | 0.655 | 0.503 | 0.463 | 0.328
SK-MES-1 | 0.841 | 0.815 | 0.507 | 0.56 | 0.356 | 0.943 | 0.952 | 0.724 | 0.714 | 0.45 | 0.346 | 0.358 | 0.165 | 0.129 | 0.188 | 0.359 | 0.305 | 0.238 | 0.266 | 0.196
NCI-H2170 | 0.797 | 0.767 | 0.776 | 0.715 | 0.601 | 1.23 | 1.07 | 1.11 | 1.13 | 0.785 | 0.488 | 0.515 | 0.549 | 0.534 | 0.521 | 0.346 | 0.252 | 0.253 | 0.239 | 0.206
LC-2-ad | 0.876 | – | 0.701 | 0.641 | 0.463 | 0.417 | – | 0.421 | 0.44 | 0.328 | 0.459 | – | 0.541 | 0.446 | 0.325 | 0.45 | – | 0.346 | 0.305 | 0.223
NCI-H1915 | 1.05 | 1.01 | 0.982 | 0.959 | 0.896 | 0.89 | 0.863 | 0.879 | 0.856 | 0.796 | 0.293 | 0.247 | 0.28 | 0.247 | 0.245 | 0.875 | 0.504 | 0.846 | 0.808 | 0.621
NCI-H322M | 0.805 | 0.895 | 0.689 | 0.676 | 0.496 | 0.949 | 0.883 | 0.858 | 0.813 | 0.697 | 0.278 | 0.216 | 0.207 | 0.209 | 0.198 | 0.474 | 0.495 | 0.459 | 0.393 | 0.34
NCI-H1792 | 0.679 | 0.603 | 0.543 | 0.637 | 0.408 | 0.972 | 0.897 | 0.906 | 0.868 | 0.634 | 0.848 | 0.727 | 0.63 | 0.551 | 0.468 | 0.298 | 0.255 | 0.222 | 0.229 | 0.15
PC-3 [JPC-3] | 1.06 | 1.02 | 0.851 | 0.88 | 0.618 | 0.988 | 1.04 | 0.86 | 0.797 | 0.653 | 1.06 | 0.758 | 0.936 | 0.801 | 0.566 | 0.778 | 0.647 | 0.56 | 0.677 | 0.494
NCI-H2405 | 0.792 | – | 0.441 | 0.678 | 0.494 | 0.829 | 0.649 | 0.698 | 0.703 | 0.586 | 0.207 | 0.212 | 0.226 | 0.212 | 0.208 | 0.46 | – | 0.294 | 0.415 | 0.313
NCI-H1563 | 0.896 | 0.887 | 0.897 | 0.808 | 0.765 | 0.852 | 0.832 | 0.813 | 0.759 | 0.67 | 0.456 | 0.44 | 0.484 | 0.471 | 0.429 | 0.668 | 0.614 | 0.555 | 0.618 | 0.613
EPLC-272H | 1.13 | – | 0.808 | 0.69 | 0.658 | 0.967 | – | 0.779 | 0.893 | 0.799 | 0.328 | – | 0.345 | 0.249 | 0.198 | 0.377 | – | 0.272 | 0.266 | 0.262
EMC-BAC-2 | 0.738 | 0.646 | 0.602 | 0.665 | 0.508 | 0.738 | 0.716 | 0.699 | 0.646 | 0.496 | 0.3 | 0.258 | 0.302 | 0.32 | 0.256 | 0.553 | 0.445 | 0.442 | 0.414 | 0.345
